The text below walks through data of patent US4421687A, “Macbecin derivatives” (priority 1981, dated 1983).

For one series, the system named is Bacillus subtilis. Description: antibacterial activity (MIC) against Bacillus subtilis. The class given is cell-based.
A further series deals with Staphylococcus aureus. Kind of series: antibacterial activity (MIC) against Staphylococcus aureus. The format is cell-based.
Series [1] in a line: acute toxicity (LD50), mouse, intraperitoneal. The format is in vivo.

≈ marks a conversion by molar mass, not a printed value.

As to `COC1C2=CC(=O)C=C(NC(=O)C(C)=CC=CC(C)C(OC(N)=O)C(C)=CC(C)C(OC)C(O)CC1C)C2=O` (centres unmarked) [E-5], the MIC in the series on Bacillus subtilis and with Staphylococcus aureus was 50 to 100 µg/mL (≈ 91.8 to 184 µM) throughout.

Turning to `COC1CC(C)C(OC)C2=CC(=O)C=C(NC(=O)C(C)=CC=CC(C)C(OC(N)=O)C(C)=CC(C)C1O)C2=O` (centres unmarked) [E-3], the MIC against Bacillus subtilis and with Staphylococcus aureus was 50 to 100 µg/mL (≈ 91.8 to 184 µM) throughout.

As for `COC1c2cc(O)cc(c2O)NC(=O)/C(C)=C/C=C\C(C)C(OC(N)=O)/C(C)=C/C(C)C(OC)C(O)CC1C` (centres unmarked) [E-5-R], in series [1] (in vivo, ip, intraperitoneal, acute toxicity), the 50% lethal dose (LD50) fell in the range of 100 to 200 mg/kg. Besides, the “acute toxicity as compared with Macbecin I and II” value in series [1] (intraperitoneal, compared with Macbecin I and II) is on record as “lower toxicity”. Moreover, in series [1] (ip, conclusion from the LD50), the “acute toxicity (in words)” value is given as “low toxicity”. Also, the MIC against Bacillus subtilis and against Staphylococcus aureus was 50 to 100 µg/mL (≈ 91.5 to 183 µM) in each case.

`COC1CC(C)C(OC)c2cc(O)cc(c2O)NC(=O)C(C)=CC=CC(C)C(OC(N)=O)C(C)=CC(C)C1O` (centres unmarked) [E-3-R]: the MIC against Bacillus subtilis and in the series on Staphylococcus aureus was 50 to 100 µg/mL (≈ 91.5 to 183 µM) each time.

One may read the MIC as the smallest concentration in the dilution series that meets the test's criterion for growth inhibition. Lower therefore signals inhibition by little substance. The term LD50 denotes the dose expected to kill half of the subjects tested. The low end stands for greater toxicity, the high end for lower toxicity.
